US6949571B2, “1,2-dihydropyridine compounds, process for preparation of the same and use thereof” (Eisai Co., Ltd., priority 2000, dated 2005)

What follows are compounds tested on AMPA receptor. Settings: Table 1; primary culture of rat embryo cerebral cortex nerve cells, 2 μM AMPA, 1 μM MK-801.
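Note: primary rat embryonic cortical neurons grown on an astrocyte layer in 96-well plates, used after at least 8 to 10 days in culture, Fura2-AM fluorescence ratio at 340/380 nm excitation.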
Experimental: Cerebral cortex was cut out from the brain of rat of gestational 18 days and treated with trypsin and DNase to disperse the cells. The cells were flown by MEM containing 10% of serum, sown in a culture bottle and astrocytes were proliferated. The astrocytes were re-dispersed by trypsin and sown in a 96-well plate. After incubation for one week, it was confirmed that the astrocytes covered all over the bottom and then the nerve cells of cerebral cortex which was dispersed by the above method were sown thereupon. After incubation for 24 hours, the medium was changed, the incubation was carried out for one week and, after that, the medium was changed to that containing 1 μM of MK-801. Nerve cells which were incubated for not shorter than 8 to 10 days were used.
Calcium influx into the cells was measured using Fura2-AM which was a calcium-sensitive fluorescent dye. It was treated in a medium containing Fura2-AM for 1 hour, incorporated into the cells, exchanged to a Tyrode solution containing 1 μM MK-801 and stimulation was carried out using 2 μM AMPA. Change in the amount of calcium flown into the cells were measured as the change in the fluorescent intensity at the exciting wave length of 340/380 nm.

Q: With `O=c1c(-c2ccccn2)cc(-c2ccccn2)cn1-c1ccccc1` [Example 62, 3-(2-Pyridyl)-5-(2-pyridyl)-1-phenyl-1,2-dihydropyridin-2-one] as the compound, how does the IC50 read?
A: Its IC50 is 3.1 µM.

Q: How did the IC50 turn out when `N#Cc1cccc(-c2cc(-c3ccccn3)cn(-c3ccccc3)c2=O)c1` [Example 63, 3-(3-Cyanophenyl)-5-(2-pyridyl)-1-phenyl-1,2-dihydropyridin-2-one] was run?
A: Its IC50 is 1.1 µM.

Q: `N#Cc1ccc(-c2cc(-c3ccccn3)cn(-c3ccccc3)c2=O)cc1` [Example 64, 3-(4-Cyanophenyl)-5-(2-pyridyl)-1-phenyl-1,2-dihydropyridin-2-one] was tested. Which IC50 did it give?
A: Its IC50 is 2.8 µM.

Q: How did the IC50 turn out when `O=c1c(-c2cccc(Cl)c2)cc(-c2ccccn2)cn1-c1ccccc1` [Example 65, 3-(3-Chlorophenyl)-5-(2-pyridyl)-1-phenyl-1,2-dihydropyridin-2-one] was run?
A: Its IC50 is 0.6 µM.

Q: Which IC50 does the source give for `O=c1c(-c2ccc(Cl)cc2)cc(-c2ccccn2)cn1-c1ccccc1` [Example 66, 3-(4-Chlorophenyl)-5-(2-pyridyl)-1-phenyl-1,2-dihydropyridin-2-one] here?
A: Its IC50 is 2.4 µM.

Q: For `O=c1c(-c2cccnc2)cc(-c2ccccn2)cn1-c1ccccc1` [Example 67, 3-(3-Pyridyl)-5-(2-pyridyl)-1-phenyl-1,2-dihydropyridin-2-one], which IC50 is on record?
A: Its IC50 is 6.5 µM.

Q: Which IC50 does the source give for `COc1cccc(-c2cc(-c3ccccn3)cn(-c3ccccc3)c2=O)c1` [Example 69, 3-(3-Methoxyphenyl)-5-(2-pyridyl)-1-phenyl-1,2-dihydropyridin-2-one] here?
A: The IC50 was 0.9 µM.

Q: With `COc1ccc(-c2cc(-c3ccccn3)cn(-c3ccccc3)c2=O)cc1` [Example 70, 3-(4-Methoxyphenyl)-5-(2-pyridyl)-1-phenyl-1,2-dihydropyridin-2-one] as the compound, how does the IC50 read?
A: Its IC50 is 3.1 µM.

Q: How did the IC50 turn out when `O=c1c(-c2ccccc2F)cc(-c2ccccn2)cn1-c1ccccc1` [Example 71, 3-(2-Fluorophenyl)-5-(2-pyridyl)-1-phenyl-1,2-dihydropyridin-2-one] was run?
A: The IC50 was 0.05 µM.

Q: For `O=c1c(-c2cccc(F)c2)cc(-c2ccccn2)cn1-c1ccccc1` [Example 72, 3-(3-Fluorophenyl)-5-(2-pyridyl)-1-phenyl-1,2-dihydropyridin-2-one], which IC50 is on record?
A: Its IC50 is 0.7 µM.

Q: `O=c1c(-c2ccc(F)cc2)cc(-c2ccccn2)cn1-c1ccccc1` [Example 73, 3-(4-Fluorophenyl)-5-(2-pyridyl)-1-phenyl-1,2-dihydropyridin-2-one] was tested. Which IC50 did it give?
A: The IC50 was 1.2 µM.

Q: `COc1cccc(-n2cc(-c3ccccn3)cc(-c3ccccc3Cl)c2=O)c1` [Example 74, 3-(2-Chlorophenyl)-5-(2-pyridyl)-1-(3-methoxyphenyl)-1,2-dihydropyridin-2-one] was tested. Which IC50 did it give?
A: Its IC50 is 0.2 µM.

Q: Which IC50 does the source give for `COc1ccncc1-c1cc(-c2ccccn2)cn(-c2ccccc2)c1=O` [Example 77, 3-(4-Methoxy-3-pyridyl)-5-(2-pyridyl)-1-phenyl-1,2-dihydropyridin-2-one] here?
A: Its IC50 is 0.02 µM.

Q: Which IC50 does the source give for `N#Cc1cccc(-c2cc(-c3ccccc3)cn(-c3cccnc3)c2=O)n1` [Example 79, 3-(6-Cyano-2-pyridyl)-5-phenyl-1-(3-pyridyl)-1,2-dihydropyridin-2-one] here?
A: The IC50 was 2.6 µM.

Q: With `COc1cccc(-n2cc(-c3ccccn3)cc(-c3cccnc3F)c2=O)c1` [Example 80, 3-(2-Fluoro-3-pyridyl)-5-(2-pyridyl)-1-(3-methoxyphenyl)-1,2-dihydropyridin-2-one] as the compound, how does the IC50 read?
A: Its IC50 is 0.3 µM.

Q: How did the IC50 turn out when `COc1ncccc1-c1cc(-c2ccccn2)cn(-c2ccccc2)c1=O` [Example 81, 3-(2-Methoxy-3-pyridyl)-5-(2-pyridyl)-1-phenyl-1,2-dihydropyridin-2-one] was run?
A: The IC50 was 2.7 µM.

Q: `O=c1c(-c2cccnc2F)cc(-c2ccccn2)cn1-c1ccc(F)cc1` [Example 82, 3-(2-Fluoro-3-pyridyl)-5-(2-pyridyl)-1-(4-fluorophenyl)-1,2-dihydropyridin-2-one] was tested. Which IC50 did it give?
A: The IC50 was 0.8 µM.

Q: With `CSc1ccc(-n2cc(-c3ccccn3)cc(-c3cccnc3F)c2=O)cc1` [Example 84, 3-(2-Fluoro-3-pyridyl)-5-(2-pyridyl)-1-(4-methylthiophenyl)-1,2-dihydropyridin-2-one] as the compound, how does the IC50 read?
A: The IC50 was 0.9 µM.

Q: With `COc1ccncc1-n1cc(-c2ccccn2)cc(-c2cccnc2F)c1=O` [Example 86, 3-(2-Fluoro-3-pyridyl)-5-(2-pyridyl)-1-(4-methoxy-3-pyridyl)-1,2-dihydropyridin-2-one] as the compound, how does the IC50 read?
A: Its IC50 is 1.9 µM.

Q: With `O=c1c(-c2cccnc2F)cc(-c2ccccc2)cn1-c1cccnc1` [Example 87, 3-(2-Fluoro-3-pyridyl)-5-phenyl-1-(3-pyridyl)-1,2-dihydropyridin-2-one] as the compound, how does the IC50 read?
A: Its IC50 is 1.2 µM.

Q: How did the IC50 turn out when `O=c1c(-c2cccnc2F)cc(-c2ccccn2)cn1-c1cccc(F)c1` [Example 88, 3-(2-Fluoro-3-pyridyl)-5-(2-pyridyl)-1-(3-fluorophenyl)-1,2-dihydropyridin-2-one] was run?
A: Its IC50 is 0.3 µM.

Q: `N#Cc1ccccc1-c1cc(-c2ccccn2)cn(-c2cccc(F)c2)c1=O` [Example 92, 3-(2-Cyanophenyl)-5-(2-pyridyl)-1-(3-fluorophenyl)-1,2-dihydropyridin-2-one] was tested. Which IC50 did it give?
A: The IC50 was 0.05 µM.

Q: Which IC50 does the source give for `N#Cc1ccc(-n2cc(-c3ccccn3)cc(-c3ccccc3C#N)c2=O)cc1` [Example 93, 3-(2-Cyanophenyl)-5-(2-pyridyl)-1-(4-cyanophenyl)-1,2-dihydropyridin-2-one] here?
A: The IC50 was 1.9 µM.

Q: For `N#Cc1cccc(-n2cc(-c3ccccn3)cc(-c3ccccc3C#N)c2=O)c1` [Example 94, 3-(2-Cyanophenyl)-5-(2-pyridyl)-1-(3-cyanophenyl)-1,2-dihydropyridin-2-one], which IC50 is on record?
A: The IC50 was 1.5 µM.

Q: With `COc1ccc(-n2cc(-c3ccccn3)cc(-c3ccccc3C#N)c2=O)cc1` [Example 95, 3-(2-Cyanophenyl)-5-(2-pyridyl)-1-(4-methoxyphenyl)-1,2-dihydropyridin-2-one] as the compound, how does the IC50 read?
A: Its IC50 is 0.3 µM.

Q: How did the IC50 turn out when `COc1cccc(-n2cc(-c3ccccn3)cc(-c3ccccc3C#N)c2=O)c1` [Example 96, 3-(2-Cyanophenyl)-5-(2-pyridyl)-1-(3-methoxyphenyl)-1,2-dihydropyridin-2-one] was run?
A: The IC50 was 0.06 µM.

Q: For `O=c1c(-c2ccccc2)cc(-c2ccccn2)cn1-c1cccc(F)c1` [Example 97, 3-Phenyl-5-(2-pyridyl)-1-(3-fluorophenyl)-1,2-dihydropyridin-2-one], which IC50 is on record?
A: Its IC50 is 0.4 µM.

Q: `O=c1c(-c2ccccc2)cc(-c2ccccn2)cn1-c1ccc(F)cc1` [Example 98, 3-Phenyl-5-(2-pyridyl)-1-(4-fluorophenyl)-1,2-dihydropyridin-2-one] was tested. Which IC50 did it give?
A: The IC50 was 0.6 µM.

Q: With `O=c1c(-c2ccccc2Cl)cc(-c2ccccn2)cn1-c1ccc(F)cc1` [Example 99, 3-(2-Chlorophenyl)-5-(2-pyridyl)-1-(4-fluorophenyl)-1,2-dihydropyridin-2-one] as the compound, how does the IC50 read?
A: Its IC50 is 0.1 µM.

Q: For `N#Cc1ccccc1-c1cc(-c2ccccn2)cn(-c2ccc(C=O)cc2)c1=O` [Example 100, 3-(2-Cyanophenyl)-5-(2-pyridyl)-1-(4-formylphenyl)-1,2-dihydropyridin-2-one], which IC50 is on record?
A: Its IC50 is 0.4 µM.

Q: `N#Cc1ccccc1-c1cc(-c2ccccn2)cn(-c2ccccc2C=O)c1=O` [Example 101, 3-(2-Cyanophenyl)-5-(2-pyridyl)-1-(2-formylphenyl)-1,2-dihydropyridin-2-one] was tested. Which IC50 did it give?
A: Its IC50 is 0.2 µM.

Q: With `N#Cc1ccccc1-c1cc(-c2ccccn2)cn(-c2cccc(Cl)c2)c1=O` [Example 102, 3-(2-Cyanophenyl)-5-(2-pyridyl)-1-(3-chlorophenyl)-1,2-dihydropyridin-2-one] as the compound, how does the IC50 read?
A: Its IC50 is 0.02 µM.

Q: How did the IC50 turn out when `Cc1cccc(-n2cc(-c3ccccn3)cc(-c3ccccc3C#N)c2=O)c1` [Example 103, 3-(2-Cyanophenyl)-5-(2-pyridyl)-1-(3-tolyl)-1,2-dihydropyridin-2-one] was run?
A: The IC50 was 0.03 µM.
